# Assay results reported in patent US9359322B2, “C-linked glucuronide of N-(4-hydroxybenzyl) retinone, analogs thereof, and methods of using the same to inhibit neoplastic cell growth” (Wisconsin Alumni Research Foundation, priority 2005, dated 2016).
# Experiments:
# [1] = test system: CYP26B1 mRNA; assay: Induction of CYP26B1 mRNA in lung (Q-PCR); type: in vivo, rat; details: at sacrifice, retinoid-fed rats, 2 mmol/kg diet; data not shown
# [2] = Plasma triglyceride measurement; type: in vivo, rat; details: 2 mmol/kg diet, 22 days; FIG. 2A
# Experimental: Plasma Triglyceride Measurement. Bloods were drawn from anesthetized animals in the presence of EDTA as an anticoagulant, and the resulting plasma was used for the measurement of plasma “true” triglyceride levels using a kit from Sigma-Aldrich (Saint Louis, Mo.). Briefly, the total plasma triglyceride and glycerol concentrations were determined, and the glycerol component was subtracted from the total plasma triglyceride measurement to obtain the “true” serum triglyceride concentration.
# [3] = molecular target: T1, RXRγ (Homo sapiens, UniProt P48443); assay: Nuclear retinoid receptor binding assay, competition with [3H]9-cis RA; details: 4-HBRCG up to 10^−4.5 M; data not shown
# T1 sequence (P48443 1-463): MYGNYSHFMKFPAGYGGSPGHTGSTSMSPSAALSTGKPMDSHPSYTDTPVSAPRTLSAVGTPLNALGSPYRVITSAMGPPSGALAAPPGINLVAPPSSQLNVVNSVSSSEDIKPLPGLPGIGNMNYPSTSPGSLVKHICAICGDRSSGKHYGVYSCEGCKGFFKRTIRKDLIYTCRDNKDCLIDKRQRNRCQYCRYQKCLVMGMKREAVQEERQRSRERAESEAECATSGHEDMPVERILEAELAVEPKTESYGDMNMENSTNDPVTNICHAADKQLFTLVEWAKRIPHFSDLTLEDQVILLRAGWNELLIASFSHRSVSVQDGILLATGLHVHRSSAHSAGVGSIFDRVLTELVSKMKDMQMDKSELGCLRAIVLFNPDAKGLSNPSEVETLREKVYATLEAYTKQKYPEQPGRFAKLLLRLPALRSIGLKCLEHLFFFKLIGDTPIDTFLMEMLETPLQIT
# Experimental: (§1) Nuclear Retinoid Receptor Binding Assay. Competition of 3 and 7 and 4-HBRCGlucose with [^3H]-all-trans-RA (4.2-4.6 nM) for binding to RARβ and RARγ and with [^3H]-9-cis RA (1.9 nM) for binding to RXRγ was determined using an in vitro ligand binding assay.^41, 42 [^3H]-all-trans-RA (40.5 Ci/mmole) or [^3H]-9-cis-RA (69.4 Ci/mmole) was added to receptor-containing extracts in the absence and presence of increasing concentrations of competing ligands at 4° C. for 3 hr. A hydroxylapatite (HAP) assay was used to separate ligand bound to receptor from that free in solution, and the radioactivity associated with the HAP pellet was measured by scintillation counting.
# [4] = Terminal plasma drug levels (plasma retinoid assay, HPLC); type: in vivo, rat; details: day 22 of treatment; 2 mmol/kg diet; ± SEM
# Experimental: (§2) Plasma Retinoid Assay. To 500 μL of plasma was added 150 μL of ethanol containing 0.75 μg of internal standard (N-(4-chlorophenyl) retinamide). After mixing 30 sec., 500 μL of ethyl acetate was added followed by 1 min. of mixing and centrifugation for 5 minutes at 1000 rpm in an IEC CL centrifuge. The ethyl acetate layer was removed and syringe filtered through a 0.45 um filter. The ethyl acetate extraction was repeated two more times. The combined extracts were evaporated and the residue reconstituted in 100 μL of methanol. The methanol extract (20 μL) was analyzed by HPLC on a Beckman Instruments model 127 instrument equipped with a model 166 UV detector. Chromatography was done on a precolumn equipped 250×4.6 mm Bechman Ultrasphere ODS column with an 85% methanol/water mobile phase (both containing 10 mM ammonium acetate) flowing at 1 mL/min. Analysis for both internal standard and retinol was conducted at 350 nm and internal standard recoveries and retinol levels were determined by comparison with standard curves, with adjustment of the retinol level based on recovery. Recoveries of internal standard averaged ca. 78%. […] In the 4-HPR treated group, plasma levels of this retinoid were evaluated simultaneously in the same samples as above. In order to avoid interfering substances, plasma treatment retinoid levels for RA and 4-HBRCG were measured using the above system and a step gradient of 75% methanol for 15 min. followed by 85% methanol for 40 minutes.
# [5] = Plasma retinol level (HPLC); type: in vivo, rat; details: 2 mmol/kg diet
# Experimental: (§3) Baseline measurement of initial tumor sizes, numbers and rat body weights were determined immediately before commencement of treatments, and final measurements were recorded just prior to sacrifice of the animals. Animals were palpated for tumors twice weekly and tumor diameters were measured weekly by a micrometer caliper. Tumor volumes were calculated using the formula [V= 4/3 πr^3] where r is one-half the mean of the sum of the largest diameter and the axis at right angle to it. All tumors as well as lungs, liver, kidney and femur were excised at the end of the experiment for chemical and histopathological evaluation. Blood samples were also taken from each animal for determination of plasma retinol and triglyceride levels.
# as §2
# [6] = molecular target: T2, RARγ (Homo sapiens, UniProt P13631); assay: Nuclear retinoid receptor binding assay, competition with [3H]all-trans RA; details: competition for [3H]atRA; present work
# T2 sequence (P13631 1-454): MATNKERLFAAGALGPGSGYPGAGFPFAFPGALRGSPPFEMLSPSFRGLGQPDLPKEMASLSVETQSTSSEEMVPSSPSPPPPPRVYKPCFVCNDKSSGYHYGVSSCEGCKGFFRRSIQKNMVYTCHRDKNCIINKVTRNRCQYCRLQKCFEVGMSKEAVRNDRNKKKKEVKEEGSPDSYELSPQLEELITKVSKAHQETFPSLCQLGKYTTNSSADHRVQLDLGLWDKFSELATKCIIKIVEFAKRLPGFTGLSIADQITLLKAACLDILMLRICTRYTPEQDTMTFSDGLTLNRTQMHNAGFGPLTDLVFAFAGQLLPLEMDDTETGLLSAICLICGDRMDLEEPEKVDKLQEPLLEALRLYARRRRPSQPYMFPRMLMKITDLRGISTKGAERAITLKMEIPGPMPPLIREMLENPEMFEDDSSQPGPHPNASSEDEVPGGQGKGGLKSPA
# Experimental: as §1
# [7] = Body weight change during retinoid feeding; type: in vivo, rat; details: relative to baseline body weight over 22 days; 2 mmol/kg diet
# Experimental: Animal Studies: Mammary tumors were induced by intragastric intubation of 50-day old female Sprague-Dawley rats (Harlan Industries, Indianapolis, Ind.) with a single dose of 15 mg DMBA in 1.0 ml of sesame oil per rat. The rats were then maintained on a powdered Teklad 22/5 rodent chow diet (W) 8640 (Harlan Industries, Indianapolis, Ind.), and allowed food and water ad libitum. Four months later, rats which had developed palpable tumors were randomly assigned to the experimental groups (4 rats/group). The retinoid-treated groups were fed diets supplemented with 2 mmol/kg diet of atRA, 4-HPR, or 4-HBRCG, respectively. The retinoids were added to the diet in a vehicle consisting of 25 ml of ethanol: tricaprylin (1:4 v/v) plus 2% (w/v) of α-tocopherol as previously described.^9 This vehicle was also added to the control diet. The additives were blended into the chow diets using a Hobart food mixer. The diets were fed in stainless steel feeders designed with food hoppers. The food was replaced weekly with freshly prepared diets. Food consumption was determined once weekly, and from that the average daily consumption/rat was estimated. These diets were continuously fed for 22 days. Animals were also weighted weekly and monitored for general health status and signs of possible toxicity due to treatment.
# as §3
smiles,measurement,setting,value
"CC1=C(/C=C/C(C)=C/C=C/C(C)=C/C(=O)Cc2ccc(CC3OC(C(=O)O)C(O)C(O)C3O)cc2)C(C)(C)CCC1 [4-HBRCG (7), 2,6-Anhydro-7-deoxy-7-[4-(retinoylmethyl)-phenyl]-L-glycero-L-gulo-heptinoic acid]",Induction of CYP26B1 mRNA in lung,[1],did not induce these cytochrome p450 mRNAs
same,Effect on serum triglyceride concentration,[2],did not cause this undesirable effect
same,Competition for [3H]9-cis RA binding to RXR,[3],almost no competition
same,Plasma retinoid concentration (terminal plasma drug level),[4],0.10 ± 0.01 µg/mL
same,Effect on blood retinol,[5],did not produce any significant reduction in blood retinol
same,Plasma retinol,"[5]; day 22 of treatment, mean ± SEM",0.40 ± 0.04 µg/mL
same,Times less potent than atRA in binding to RARγ,[6],1400 times
same,% Weight change,[7],+3%
